Laboratory results as given in article PMC5520057, “Modulation of nongenomic activation of PI3K signalling by tetramerization of N-terminally-cleaved RXRα” (Nature Communications, 2017).

Assays:
MMTV-PyMT mammary tumour [1] = test: MMTV-PyMT tumours, western blotting; format: in vivo, MMTV-PyMT mice; details: diet with K-80003 (100 mg kg^−1) for 4 weeks
Experimental: (§1) Proteins or cell lysates were electrophoresed by SDS-PAGE gel and transferred to polyvinylidene difluoride (PVDF) membrane. The membranes were blocked with 5% skimmed milk in TBST (50 mM Tris-HCl (pH 7.4), 150 mM NaCl and 0.1% Tween20) for 1 h, then incubated with primary antibodies and secondary antibodies and detected using ECL system (Thermo). The dilutions of the primary antibodies were anti-RXRα (ΔN197, Santa Cruz) in 1:1,000, anti-PARP (H-250, Santa Cruz) in 1:3,000, anti-p85α (Millipore) in 1:1,000, anti-p-AKT (D9E, Cell Signaling Technology) in 1:1000, anti-AKT1/2/3 (H-136, Santa Cruz) in 1:1,000, anti-β-actin (Sigma) in 1:5,000, anti-c-myc (9E10, Santa Cruz) in 1:3,000, anti-HA (F-7, Santa Cruz) in 1:3,000, anti-Flag (F1804, Sigma) in 1:3,000. Images of all uncropped western blots can be found in Supplementary Figs 10–14.
For nude mice xenograft study, Myc-RXRα and Myc-tRXRα cloned into pcdna3.0 vector were stably transfected into MCF-7 cells, and the resulting stable clones and control clone (2 × 10^6 cells in 100 μl) were injected subcutaneously into nude mice (BALB/c, SPF grade, 16–18 g, 4–5-week old). For drug treatment, mice were intraperitoneally injected (i.p.) daily with K-80003 (20 mg kg^−1) diluted in Tween-80 or vehicle (tween-80). Body weight and tumour size were measured every 2 days. […]

tRXRα [2] = test: BS3 crosslinking, transfected tRXRα; format: cell-based
Experimental: (§2) Cell lysates were then prepared and incubated with bis[sulfosuccinimidyl] suberate (BS3, Pierce) dissolved in dimethyl sulfoxide to a final concentration of 1 mM. The reactions were stopped with protein gel loading buffer. Samples were resolved by SDS/PAGE in 8% acrylamide gels and protein bands were visualized by western blotting.

MCF-7/tRXRα tumour = test: MCF-7/tRXRα xenograft in nude mice, tumour growth; format: in vivo; details: K-80003 20 mg kg^−1 i.p. daily for 12 days, n=6 in each group
Experimental: (§3) For nude mice xenograft study, Myc-RXRα and Myc-tRXRα cloned into pcdna3.0 vector were stably transfected into MCF-7 cells, and the resulting stable clones and control clone (2 × 10^6 cells in 100 μl) were injected subcutaneously into nude mice (BALB/c, SPF grade, 16–18 g, 4–5-week old). For drug treatment, mice were intraperitoneally injected (i.p.) daily with K-80003 (20 mg kg^−1) diluted in Tween-80 or vehicle (tween-80). Body weight and tumour size were measured every 2 days. Mice were killed after 12-day drug treatment and the tumours removed for various assessments. For MMTV-PyMT transgenic mouse study, 4-week old female mice of a transgenic mouse on the FVB/N genetic background expressing the PyMT oncogene under the control of MMTV LTR promoter[40] were fed with diet containing with or without K-80003 (100 mg kg^−1) for 4 weeks. Estimation of tumour appearance was performed by palpation once every day. Tumour tissues of left thoracic mammary glands were excised after the treatment. Portion of tissues was used to prepare extracts for western blotting, while the rest was fixed in 4% phosphate-buffered paraformaldehyde, and used for immunohistochemical staining using anti-Ki67 antibody and immunostaining using Δ197 anti-RXRα antibody. All experimentations and animal usage were performed and approved by the Animal Care and Use Committee of Xiamen University.

[3] = test system: p85α / tRXRα/F313A interaction; test: coIP, p85α with tRXRα/F313A; format: cell-based; details: HEK293T cells; K-80003 (5 × 10^−6 M) for 6 h; coIP anti-HA
Experimental: For coIP assay[29], HEK293T cells grown in 10 cm dishes were transfected with various plasmids. Cells were lysed in 1 ml of lysis buffer (20 mM Tris (pH 7.5), 150 mM NaCl, 1% Triton X-100, 1 mM EDTA, 30 mM NaF, 2 mM sodium pyrophosphate) with a cocktail of proteinase inhibitors (Roche). Lysates were incubated with the appropriate antibody for 12 h at 4 °C and subsequently incubated with protein A-Sepharose beads for 1 h. The immunoprecipitates were collected and washed three times with lysis buffer. The protein–antibody complexes recovered on beads were subjected to immunoblotting using appropriate antibodies after separation by SDS-PAGE. Input represents 5% of cell lysates used for coIP assays.

tRXRα [4] = test: Nuclear/cytoplasmic fractionation with BS3 crosslinking; format: cell-based; details: HEK293T cells, K-80003 (5 × 10^−6 M) for 6 h, one of three similar experiments
Experimental: as §2, §1

tRXRα [5] = test: Subcellular localization of tRXRα, immunostaining; format: cell-based; details: MCF-7 cells; K-80003 (5 × 10^−6 M) for 3 h, then TNFα (10 ng ml^−1) for 30 min
Experimental: Cells mounted on glass slides or tumour tissue frozen sections (5-μm-thick) were washed with PBS and fixed in 4% paraformaldehyde (PFA) for 15 min and permeabilized with PBS containing 0.1% Triton X-100 for 15 min. Fixed cells or tumour tissues were blocked with 5 mg ml^−1 BSA in PBS for 30 min at room temperature, followed with incubation with primary antibodies for 3 h and secondary antibodies at room temperature for 1 h and co-stained with 4′6′-diamidino-2-phenylindole (DAPI) to visualize nuclei. The images were taken under an LSM-510 confocal laser scanning microscope system (Carl Zeiss).

MMTV-PyMT mammary tumour [6] = test: MMTV-PyMT tumours, Ki-67 immunostaining; format: in vivo, MMTV-PyMT mice; details: diet with K-80003 (100 mg kg^−1) for 4 weeks; Ki-67 positive cells scored from 500 cells
Experimental: as §3, with “Portion of tissues was used to prepare extracts for western blotting, while the rest was fixed in 4% phosphate-buffered paraformaldehyde, and used for immunohistochemical staining using anti-Ki67 antibody and immunostaining using Δ197 anti-RXRα antibody. All experimentations and animal usage were performed and approved by the Animal Care and Use Committee of Xiamen University.” left out
(a) Expression of tRXRα in MMTV-PyMT mammary tumors analyzed by Western blotting using ΔN197 anti-RXRα antibody.
(b) Tumor sections from MMTV-PyMT mice fed with vehicle or K-80003 were immunostained with anti-Ki-67 antibody. Ki-67 positive cells were scored from 500 cells. […]

RXRα-LBD/L433D = test: ITC, RXRα-LBD/L433D mutant; format: binding, human; details: 25 °C, protein 50 μM, pH 7.5, compound 1 mM
Experimental: The human RXRα LBD (residues Thr223 to Thr462) cloned as an N-terminal histidine-tagged fusion protein in pET15b expression vector was expressed in Escherichia coli BL21 strain (Stratagene). After sonication, cell extract was incubated with the His60 Ni Superflow resin, and His-tagged RXRα-LBD-resin complexes were washed, eluted and concentrated to 5 mg ml^−1 for subsequent trails. For crystallization experiment, bovine thrombin (Sigma) was used to cleave the His tag from the purified His-tagged RXRα-LBD. The resulting His tag was removed on the Resource-Q column (GE) using 0.1–1 M NaCl gradient and the Tris-Cl pH 8 buffer. RXRα-LDB was further purified using gel filtration on a Superdex 200 2660 column (GE) pre-equilibrated with the 75 mM NaCl, 20 mM Tris-Cl buffer (pH 8).
Binding of compounds to RXRα-LBD or mutant was studied in […] at 25 °C using isothermal titration calorimetry (ITC) assay that measures the heat either released or absorbed during binding. The purified His-tagged RXRα-LBD or mutant protein (50 μM in 25 mM Tris-HCl, pH 7.5, 150 mM NaCl, 0.1% DMSO) was placed in the sample cell of MicroCal VP-ITC titration calorimeter. The compounds to be studied were diluted to a concentration of 1 mM in the same buffer. All solutions were degassed before the titrations. […] Calorimetric data were analysed using MicroCal Origin software (version 7.0).

CC1=C(CC(=O)O)c2cc(F)ccc2/C1=C\c1ccc(C(C)C)cc1 [K-80003]
PARP cleavage in PyMT tumours (MMTV-PyMT mammary tumour [1]): induction of PARP cleavage
cyclin D expression in PyMT tumours (MMTV-PyMT mammary tumour [1]): inhibition of cyclin D expression
tetramerization of tRXRα with cotransfected RXRα A/B domain (tRXRα [2]; HEK293T cells, tRXRα together with RXRα-A/B, K-80003, BS3, one of three similar experiments): completely suppressed the effect of K-80003 on promoting tRXRα tetramerization
tetramerization of tRXRα (tRXRα [2]; HepG2 cells, K-80003 (5 × 10^−6 M) for 6 h, BS3 1 mM, western blotting): effectively promoted the formation of tRXRα tetramers
effect on tRXRα-promoted growth of MCF-7 tumour (MCF-7/tRXRα tumour): suppressed
modulation of tRXRα/F313A interaction with p85α [3]: failed to modulate the interaction of both mutants with p85α
distribution of tetrameric tRXRα (tRXRα [4]): found exclusively in the nuclear fraction
effect on TNFα-induced cytoplasmic colocalization of tRXRα with p85α (tRXRα [5]): inhibited, resulting in tRXRα nuclear localization
tumour cell proliferation (Ki-67) (MMTV-PyMT mammary tumour [6]): inhibition of tumour cell proliferation
binding to RXRα-LBD/L433D (RXRα-LBD/L433D): failed to bind to RXRα-LBD/L433D
